Assay results taken from the Kinase Knowledgebase extract (Sharma et al. 2016).
≈ marks a conversion by molar mass, not a printed value.

What was measured:
[1] = biological target: MAPK14 (UniProt Q16539); assay: Inhibition of MAPK14 Kinase Activity (Binding Assay)
[2] = biological target: MAPK14 (UniProt Q16539); assay: Inhibition of MAPK14 Kinase Activity (Spectrophometric Assay)
[3] = biological target: EGFR (UniProt P00533)
[4] = biological target: EGFR (human) (UniProt P00533)
[5] = biological target: MAPK14 (UniProt Q16539); assay: Inhibition of MAPK14 Kinase Activity; conditions: for inhibition: concentration not given here
[6] = biological target: MAPK14 (UniProt Q16539); assay: Inhibition of TNF-alpha Production
[7] = biological target: EGFR (UniProt P00533); assay: Inhibition of EGFr Enzyme
[8] = biological target: EGFR (UniProt P00533); remark: listed apart in the source
[9] = biological target: ROCK2 (UniProt O75116); assay: Inhibition of ROCK-II Kinase Activity; conditions: concentration not given here
[10] = biological target: EGFR (human) (UniProt P00533); conditions: kb
[11] = biological target: MAPK14 (human) (UniProt Q16539); assay: Inhibition of MAPK14 Kinase Activity
[12] = biological target: MAPK14 (human) (UniProt Q16539); assay: Inhibition of MAPK14 Kinase Activity; remark: listed apart in the source
[13] = biological target: EGFR (UniProt P00533); remark: listed apart in the source
[14] = biological target: EGFR (human) (UniProt P00533); remark: listed apart in the source
[15] = biological target: EGFR (human) (UniProt P00533); conditions: a431
[16] = biological target: EGFR (UniProt P00533); conditions: concentration not given here
[17] = biological target: EGFR (human) (UniProt P00533); conditions: hn5
[18] = biological target: EGFR (human) (UniProt P00533); conditions: kb; remark: listed apart in the source
[19] = biological target: EGFR (human) (UniProt P00533); remark: listed apart in the source
[20] = biological target: EGFR (UniProt P00533); remark: listed apart in the source
[21] = biological target: CDK2 (UniProt P24941); assay: Enzyme Assay
[22] = biological target: PIK3CA (human), P42336 [Assessment of PIK3CA (Mutant) Kinase Activity in MCF-7.1 Cell Line]; assay: Assessment of PIK3CA (Mutant) Kinase Activity in MCF-7.1 Cell Line; conditions: mcf-7
[23] = biological target: EGFR (human) (UniProt P00533); conditions: hn5; remark: listed apart in the source
[24] = biological target: PIK3CA (human) (UniProt P42336); assay: Inhibition of PIK3CA Kinase Activity (FP Assay)
[25] = biological target: CDK2 (human) (UniProt P24941)
[26] = biological target: EGFR (human) (UniProt P00533); conditions: a431; remark: listed apart in the source
[27] = biological target: EGFR (UniProt P00533); remark: listed apart in the source
[28] = biological target: EGFR (UniProt P00533); remark: listed apart in the source

Sequence of EGFR (P00533 whole entry, looked up): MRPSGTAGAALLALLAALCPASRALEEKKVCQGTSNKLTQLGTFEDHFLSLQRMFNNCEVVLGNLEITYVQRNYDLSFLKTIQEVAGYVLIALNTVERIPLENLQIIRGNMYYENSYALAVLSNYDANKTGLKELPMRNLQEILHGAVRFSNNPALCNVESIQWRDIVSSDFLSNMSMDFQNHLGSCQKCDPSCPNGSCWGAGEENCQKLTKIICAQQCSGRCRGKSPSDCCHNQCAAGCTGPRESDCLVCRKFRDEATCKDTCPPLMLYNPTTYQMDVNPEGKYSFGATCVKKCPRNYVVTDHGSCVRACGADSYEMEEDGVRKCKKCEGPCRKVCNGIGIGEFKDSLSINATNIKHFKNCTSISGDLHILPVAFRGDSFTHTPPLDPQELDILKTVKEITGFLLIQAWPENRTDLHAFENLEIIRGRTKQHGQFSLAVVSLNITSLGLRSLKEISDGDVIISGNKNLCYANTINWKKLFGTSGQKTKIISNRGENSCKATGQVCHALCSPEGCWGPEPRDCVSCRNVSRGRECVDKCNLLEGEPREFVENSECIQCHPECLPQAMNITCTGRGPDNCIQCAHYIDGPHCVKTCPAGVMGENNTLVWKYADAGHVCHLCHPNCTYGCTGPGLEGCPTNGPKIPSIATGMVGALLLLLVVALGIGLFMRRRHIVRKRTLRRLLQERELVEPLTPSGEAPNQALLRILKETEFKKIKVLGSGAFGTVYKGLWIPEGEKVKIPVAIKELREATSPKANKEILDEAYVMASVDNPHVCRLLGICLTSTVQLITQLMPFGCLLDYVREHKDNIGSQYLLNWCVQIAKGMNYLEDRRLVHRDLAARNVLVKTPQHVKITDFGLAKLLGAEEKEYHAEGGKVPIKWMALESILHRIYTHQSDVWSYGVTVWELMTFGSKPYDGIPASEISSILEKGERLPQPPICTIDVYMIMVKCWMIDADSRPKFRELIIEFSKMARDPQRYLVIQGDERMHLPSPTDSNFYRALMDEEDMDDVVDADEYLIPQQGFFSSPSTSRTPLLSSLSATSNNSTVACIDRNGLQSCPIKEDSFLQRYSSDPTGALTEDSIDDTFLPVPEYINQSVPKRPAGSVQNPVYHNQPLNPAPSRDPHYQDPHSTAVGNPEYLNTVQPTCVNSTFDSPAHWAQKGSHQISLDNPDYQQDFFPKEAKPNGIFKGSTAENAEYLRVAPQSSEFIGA
Sequence of EGFR (human) (P00533 whole entry, looked up): as above
Sequence of MAPK14 (human) (Q16539 whole entry, looked up): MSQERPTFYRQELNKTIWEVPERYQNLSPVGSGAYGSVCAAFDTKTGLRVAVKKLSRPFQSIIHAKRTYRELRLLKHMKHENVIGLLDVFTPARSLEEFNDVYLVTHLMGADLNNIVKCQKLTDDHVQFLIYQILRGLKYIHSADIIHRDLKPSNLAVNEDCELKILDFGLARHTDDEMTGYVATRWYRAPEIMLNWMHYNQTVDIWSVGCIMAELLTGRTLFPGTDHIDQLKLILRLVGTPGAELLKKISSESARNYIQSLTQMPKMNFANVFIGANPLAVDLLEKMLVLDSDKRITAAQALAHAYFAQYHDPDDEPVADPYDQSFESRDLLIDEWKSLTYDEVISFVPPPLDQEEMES
Sequence of MAPK14 (Q16539 whole entry, looked up): as above
Sequence of PIK3CA (human), P42336 [Assessment of PIK3CA (Mutant) Kinase Activity in MCF-7.1 Cell Line] (P42336 whole entry, looked up, change not shown): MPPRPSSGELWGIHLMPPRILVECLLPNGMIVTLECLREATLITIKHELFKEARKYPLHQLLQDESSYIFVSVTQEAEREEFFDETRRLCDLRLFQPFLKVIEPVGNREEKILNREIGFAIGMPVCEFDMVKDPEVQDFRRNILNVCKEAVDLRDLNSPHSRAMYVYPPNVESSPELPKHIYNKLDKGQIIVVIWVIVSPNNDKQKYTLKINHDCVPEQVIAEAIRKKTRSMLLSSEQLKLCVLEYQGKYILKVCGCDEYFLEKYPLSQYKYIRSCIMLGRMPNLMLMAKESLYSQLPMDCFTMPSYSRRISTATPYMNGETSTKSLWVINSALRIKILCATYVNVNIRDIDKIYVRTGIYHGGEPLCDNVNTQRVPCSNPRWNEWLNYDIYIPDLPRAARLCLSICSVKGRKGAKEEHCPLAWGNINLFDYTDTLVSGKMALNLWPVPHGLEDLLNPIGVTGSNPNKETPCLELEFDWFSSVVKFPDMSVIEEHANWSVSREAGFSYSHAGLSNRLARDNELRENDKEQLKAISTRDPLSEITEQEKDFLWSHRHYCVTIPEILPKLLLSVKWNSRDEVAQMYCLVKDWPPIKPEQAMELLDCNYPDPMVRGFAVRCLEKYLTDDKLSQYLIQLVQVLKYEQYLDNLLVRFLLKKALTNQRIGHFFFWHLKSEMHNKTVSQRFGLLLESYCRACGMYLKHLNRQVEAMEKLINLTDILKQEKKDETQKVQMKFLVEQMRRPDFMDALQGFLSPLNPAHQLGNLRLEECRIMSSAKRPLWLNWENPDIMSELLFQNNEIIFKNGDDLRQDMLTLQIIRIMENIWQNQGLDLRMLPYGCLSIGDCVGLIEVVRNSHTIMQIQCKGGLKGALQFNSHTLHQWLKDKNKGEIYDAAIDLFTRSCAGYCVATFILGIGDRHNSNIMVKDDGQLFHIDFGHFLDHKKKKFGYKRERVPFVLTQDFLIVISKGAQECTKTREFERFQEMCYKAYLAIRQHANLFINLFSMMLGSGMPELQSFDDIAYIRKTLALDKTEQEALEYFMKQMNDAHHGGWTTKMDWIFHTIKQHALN
Sequence of PIK3CA (human) (P42336 whole entry, looked up): as the sequence (P42336 whole entry, looked up, change not shown) above

Molecule `CC12CC(C(=O)O)CC(C)(C1)C(=O)N(Cc1cccc(-n3nc(C(C)(C)C)cc3NC(=O)Nc3cccc4ccccc34)c1)C2=O` (centres undefined) has an IC50 [1] of 2150 nM and an IC50 [2] of 953 nM.
`COc1ccc(C#CC(C)(C)N)cc1-c1n[nH]c2nc(Nc3ccc(F)cc3F)ccc12` gave an inhibition ([3]; concentration not given here) of -43%.
Molecule `CCOc1cc2ncc(C#N)c(Nc3ccc(F)c(Cl)c3)c2cc1NC(=O)CC(CN(C)C)SCC(NC(=O)CC[C@@H](N)C(=O)O)C(=O)NCC(=O)O` (some centres undefined) has an IC50 [4] of 1.7 µg/mL (≈ 2.19 µM).
For `CN1CC2CCC1CC2Nc1cc(-c2ccccc2Cl)c2c(c1)N(c1c(Cl)cccc1Cl)C(=O)NC2` (centres undefined), the IC50 [5] was 0.4 nM and the IC50 [6] was 20 nM.
Work on `COc1ccc(C#CC(C)(C)O)cc1-c1n[nH]c2nc(Nc3ccc(F)cc3F)ncc12` yielded an IC50 [3] of 5200 nM.
In the case of `CN(C)c1cc2ncnc(Nc3cccc(Br)c3)c2cn1`, the IC50 [7] is reported as 0.09 nM and the IC50 [8] is reported as 14 nM.
`Brc1c(Br)c(Br)c2[nH]nnc2c1Br` gave an inhibition [9] of 9% and an inhibition [5] of -7%.
For `CNC(=O)C1(N(C)Cc2cc3c(Nc4cccc(Cl)c4F)ncnc3cc2OC)CCN(C)CC1`, the IC50 [10] was 36 nM.
For `CONC(=O)c1ccc(C)c(Nc2nc(NCC3CCCC(CN)C3)nc(NC3CCCCC3C)n2)c1` (centres undefined), the IC50 [11] was 2 nM and the IC50 [12] was 2 nM.
In the case of `COc1cc2c(NC3=CC(=O)C(OC(CF)CF)=CC3=O)ncnc2cc1OCC1CCN(C)CC1`, the IC50 [13] is reported as 1800 to 117000 nM.
In the case of `Clc1cccc(Nc2cncc(-c3cncc(NCCCc4ccncc4)c3)n2)c1`, the IC50 [14] is reported as over 100000 nM.
With `N#Cc1cnc2cnc(NCc3cccnc3)cc2c1NC1CCCCCC1` the IC50 [15] was over 40000 nM and the IC50 [12] was over 40000 nM.
Work on `O=C1NCc2c1c1c3ccc(O)cc3[nH]c1c1[nH]c3ccccc3c21` yielded an inhibition [16] of 50 to 80%.
`OCc1ccc(-c2cc3ncnc(Nc4ccc(OCc5cccc(F)c5)c(Cl)c4)c3s2)o1` gave an IC50 [17] of 100 nM.
With `CNC(=O)CN1CCC(Oc2cc3c(Nc4ccc(F)c(Cl)c4F)ncnc3cc2OC)CC1` the IC50 [18] was 9 nM.
With `CS(=O)(=O)CCNCc1ccc(-c2ccc3ncnc(Nc4ccc(OCc5cccc(F)c5)c(Br)c4)c3c2)o1` the IC50 [19] was under 100 nM.
For `O=C1NC(=O)c2c1c1c3ccccc3[nH]c1c1[nH]c3cc(O)c(O)cc3c21`, the inhibition [16] was 50 to 80%.
For `CNC(=O)N1CCN(Cc2ccnc(Nc3ncc(C#N)s3)c2C)CC1`, the IC50 [20] was over 19200 nM and the IC50 [21] was 13700 nM.
`N#Cc1cnc2ccc(NCc3c[nH]cn3)cc2c1Nc1ccc(F)c(Cl)c1` gave an IC50 [15] of 30 nM.
Molecule `Cc1nc(N)ncc1-c1nc(N2CCOCC2)c2sc(C(C)(C)O)cc2n1` has an IC50 [22] of 280 nM.
`CS(=O)(=O)CCNCCCCOc1ccc2ncnc(Nc3ccc(F)c(Cl)c3)c2c1` gave an IC50 [23] of 71 nM.
In the case of `C#Cc1cccc(Nc2ncnc3ccc(OCCCCNCCS(C)(=O)=O)cc23)c1`, the IC50 [23] is reported as 45 nM.
With `Cc1nc(N)ncc1-c1nc(N2CCOCC2)c2sc(CN3CCN(S(C)(=O)=O)CC3)cc2n1` the IC50 [22] was 290 nM.
`COC[C@H]1OC(=O)/C(=C/N(CCN(C)C)C(C)(C)C)C2=C(O)C(=O)C3=C([C@H](OC(C)=O)C[C@@]4(C)C3CC[C@@H]4O)[C@]21C` (some centres undefined) gave an IC50 [24] of 9.6 nM.
With `COc1cc2ncc(C#N)c(Nc3ccc(Sc4nc(-c5ccccc5)cs4)c(Cl)c3)c2cc1C(C(N)=O)C(CN(C)C)N(C)C` (centres undefined) the IC50 [4] was 3.2 µg/mL (≈ 4.76 µM).
With `N=C(N)NS(=O)(=O)c1ccc(NC2=Cc3ccc(C(=O)c4c(Cl)cccc4Cl)cc3C2)cc1` the IC50 [25] was 250 nM.
For `O=C1Nc2ccc3ncsc3c2C1=NNc1ccc(S(=O)(=O)O)cc1`, the IC50 [25] was 540 nM.
`CNc1cc2ncnc(Nc3cccc(Br)c3)c2cn1` was tested, and the IC50 [7] was 0.13 nM and the IC50 [8] was 16 nM.
With `Nc1ccc(NC(=O)Nc2cccc3c2C(=O)c2c-3n[nH]c2-c2ccc(O)cc2)cc1` the GI50 [26] was over 10000 nM.
`CN1CCC(Oc2cccc3ncnc(Nc4ccc(OCc5cscn5)c(Cl)c4)c23)CC1` was tested, and the IC50 [27] was 280 nM.
In the case of `CN(C)c1nc2c(Br)c(Br)c(Br)c(Br)c2[nH]1`, the inhibition [9] is reported as 31% and the inhibition [5] is reported as 15%.
`CNC(=O)N1CCN(Cc2ccnc(Nc3ncc(C#N)s3)c2)CC1` gave an IC50 [20] of over 19200 nM and an IC50 [21] of 3940 nM.
`CCS(=O)(=O)c1ccc(OC)c(Nc2ncc(-c3cccc(-c4ccccc4F)c3)o2)c1` gave an IC50 [28] of over 10000 nM and an IC50 [5] of over 10000 nM.
